Values after ≈ are worked out from the molar mass of the structure shown. A value given as a limit tells only on which side of the number the result lay.

Among the data in ChEMBL document CHEMBL1122862, “Synthesis and antibacterial activity of 2,2'-dithiobis(benzamide) derivatives against Mycobacterium species” (1985) are MIC values, retold here.

Common to all, as to type: functional
For experiment [1], the system named is Mycobacterium tuberculosis. Kind of experiment: Antibacterial activity against Mycobacterium tuberculosis H37Rv.
The test system of experiment [2] is Mycobacterium intracellulare. Kind of experiment: Antibacterial activity against Mycobacterium intracellular.
Experiment [3] concerns Mycobacterium kansasii. Briefly: Antibacterial activity against Mycobacterium kansasii.

Usually MIC stands for the least concentration at which growth counts as inhibited. A lower MIC goes with inhibition by little substance. Regarding `CCCCCC(=O)OCCCNC(=O)c1ccccc1SSc1ccccc1C(=O)NCCCOC(=O)CCCCC`, the MIC was determined as 3.13 µg/mL (≈ 5.07 µM) in experiment [1], 12.5 µg/mL (≈ 20.3 µM) in experiment [2] and 0.39 µg/mL (≈ 0.632 µM) in experiment [3].

Regarding `O=C(NC1CCC(O)CC1)c1ccccc1SSc1ccccc1C(=O)NC1CCC(O)CC1` (stereo not drawn), the minimal inhibitory concentration (MIC) in experiment [1] stood at 12.5 µg/mL (≈ 25 µM); in experiment [2], 25 µg/mL (≈ 49.9 µM); in experiment [3], 25 µg/mL (≈ 49.9 µM).

As to `CCCCCCCCCCCCCCCC(=O)OCCNC(=O)c1ccccc1SSc1ccccc1C(=O)NCCOC(=O)CCCCCCCCCCCCCCC`, the MIC in experiment [1], in experiment [2] and in experiment [3] was 100 µg/mL (≈ 115 µM) in each case.

For the compound `CCn1c2ccccc2c2cc(NC(=O)c3ccccc3SSc3ccccc3C(=O)Nc3ccc4c(c3)c3ccccc3n4CC)ccc21`, the MIC in experiment [1] was 3.13 µg/mL (≈ 4.53 µM); in experiment [2], above 100 µg/mL; in experiment [3], 50 µg/mL (≈ 72.4 µM).

For the compound `CCCCCCC(=O)OCCCNC(=O)c1ccccc1SSc1ccccc1C(=O)NCCCOC(=O)CCCCCC`, the results for the MIC in experiment [1], in experiment [2] and in experiment [3] were 0.78 µg/mL (≈ 1.21 µM), 12.5 µg/mL (≈ 19.4 µM) and 0.39 µg/mL (≈ 0.605 µM), respectively.

`CCCCCCCCCCCCCCCCCCNC(=O)c1ccccc1SSc1ccccc1C(=O)NCCCCCCCCCCCCCCCCCC`: the MIC is 100 µg/mL (≈ 124 µM) in experiment [1], above 100 µg/mL in experiment [2] and above 100 µg/mL in experiment [3].

Regarding `O=C(NCc1cccc2ccccc12)c1ccccc1SSc1ccccc1C(=O)NCc1cccc2ccccc12`, the MIC in experiment [1], in experiment [2] and in experiment [3] was above 100 µg/mL in each case.

Turning to `O=C(c1ccccc1SSc1ccccc1C(=O)N1C(=O)c2ccccc2C1=O)N1C(=O)c2ccccc2C1=O`, the minimal inhibitory concentration (MIC) in experiment [1], in experiment [2] and in experiment [3] was above 100 µg/mL in each case.

With `O=C(Nc1cccc2cccnc12)c1ccccc1SSc1ccccc1C(=O)Nc1cccc2cccnc12`, the minimum inhibitory concentration (MIC) is 25 µg/mL (≈ 44.7 µM) in experiment [1], above 100 µg/mL in experiment [2] and 100 µg/mL (≈ 179 µM) in experiment [3].

In the case of `CCCCCCCCCCCC(=O)OCCNC(=O)c1ccccc1SSc1ccccc1C(=O)NCCOC(=O)CCCCCCCCCCC`, the MIC in experiment [1] was 6.25 µg/mL (≈ 8.26 µM); in experiment [2], 100 µg/mL (≈ 132 µM); in experiment [3], 25 µg/mL (≈ 33 µM).

Take `O=C(NCCNCCO)c1ccccc1SSc1ccccc1C(=O)NCCNCCO`: the MIC is 25 µg/mL (≈ 52.2 µM) in experiment [1], above 100 µg/mL in experiment [2] and above 100 µg/mL in experiment [3].

As to `O=C(Nc1c([N+](=O)[O-])ccc2ccccc12)c1ccccc1SSc1ccccc1C(=O)Nc1c([N+](=O)[O-])ccc2ccccc12`, the MIC in experiment [1] is 50 µg/mL (≈ 77.3 µM); in experiment [2], above 100 µg/mL; in experiment [3], 50 µg/mL (≈ 77.3 µM).

As to `CN1CCCN(C(=O)c2ccccc2SSc2ccccc2C(=O)N2CCCN(C)CC2)CC1`, the MIC in experiment [1], in experiment [2] and in experiment [3] was above 100 µg/mL each time.

Consider `O=c1c2ccccc2sn1CO`, for which the minimum inhibitory concentration (MIC) in experiment [1], in experiment [2] and in experiment [3] was 12.5 µg/mL (≈ 69 µM) throughout.

Consider `CCCCN(CCCC)C(=O)c1ccccc1SSc1ccccc1C(=O)N(CCCC)CCCC`, for which the MIC in experiment [1] came to 6.25 µg/mL (≈ 11.8 µM); in experiment [2] it was 25 µg/mL (≈ 47.3 µM); in experiment [3], 25 µg/mL (≈ 47.3 µM).

On to `NNC(=O)c1ccncc1` [ISONIAZID], for which the MIC in experiment [1] amounted to 0.05 µg/mL (≈ 0.365 µM); in experiment [2] it was 6.25 µg/mL (≈ 45.6 µM); in experiment [3], 1.56 µg/mL (≈ 11.4 µM).

Regarding `CCOC(=O)CNC(=O)c1ccccc1SSc1ccccc1C(=O)NCC(=O)OCC`, the MIC in experiment [1], in experiment [2] and in experiment [3] was 25 µg/mL (≈ 52.5 µM) in each case.

For `Cl.Cl.O=C(c1ccccc1SSc1ccccc1C(=O)N1CCN(Cc2ccccc2)CC1)N1CCN(Cc2ccccc2)CC1`, the minimum inhibitory concentration (MIC) in experiment [1] was 25 µg/mL; in experiment [2], above 100 µg/mL; in experiment [3], 50 µg/mL.

With `O=C(Nc1cccc2ccc(O)cc12)c1ccccc1SSc1ccccc1C(=O)Nc1cccc2ccc(O)cc12`, the minimum inhibitory concentration (MIC) in experiment [1], in experiment [2] and in experiment [3] was 50 µg/mL (≈ 84.9 µM) in each case.

On to `CCCC(=O)OCCCNC(=O)c1ccccc1SSc1ccccc1C(=O)NCCCOC(=O)CCC`, for which the results for the MIC in experiment [1], in experiment [2] and in experiment [3] were 6.25 µg/mL (≈ 11.1 µM), 25 µg/mL (≈ 44.6 µM) and 6.25 µg/mL (≈ 11.1 µM), respectively.

As for `O=C(Nc1cccc(C(F)(F)F)c1)c1ccccc1SSc1ccccc1C(=O)Nc1cccc(C(F)(F)F)c1`, the minimal inhibitory concentration (MIC) was 12.5 µg/mL (≈ 21.1 µM) in experiment [1], 25 µg/mL (≈ 42.2 µM) in experiment [2] and 25 µg/mL (≈ 42.2 µM) in experiment [3].

Take `CC[C@@H](CO)NCCN[C@@H](CC)CO` [ETHAMBUTOL]: the MIC is 0.78 µg/mL (≈ 3.82 µM) in experiment [1], 12.5 µg/mL (≈ 61.2 µM) in experiment [2] and 12.5 µg/mL (≈ 61.2 µM) in experiment [3].

Consider `O=C(NC1CCCCC1)c1ccccc1SSc1ccccc1C(=O)NC1CCCCC1`, for which the MIC in experiment [1] is 12.5 µg/mL (≈ 26.7 µM); in experiment [2] it was above 100 µg/mL; in experiment [3], 100 µg/mL (≈ 213 µM).

Take `O=C(NCC(O)c1ccccc1)c1ccccc1SSc1ccccc1C(=O)NCC(O)c1ccccc1` (stereo not drawn): the MIC was 100 µg/mL (≈ 184 µM) in experiment [1], above 100 µg/mL in experiment [2] and 100 µg/mL (≈ 184 µM) in experiment [3].

For `Cl.Cl.O=C(NCC1CCNCC1)c1ccccc1SSc1ccccc1C(=O)NCC1CCNCC1`, the MIC in experiment [1] is 100 µg/mL; in experiment [2], above 100 µg/mL; in experiment [3], above 100 µg/mL.

`O=C(Nc1ccc(Br)c2ccccc12)c1ccccc1SSc1ccccc1C(=O)Nc1ccc(Br)c2ccccc12`: the MIC is 12.5 µg/mL (≈ 17.5 µM) in experiment [1], above 100 µg/mL in experiment [2] and 50 µg/mL (≈ 70 µM) in experiment [3].

For the compound `O=C(Nc1cc2ccccc2cc1O)c1ccccc1SSc1ccccc1C(=O)Nc1cc2ccccc2cc1O`, the MIC in experiment [1] is 12.5 µg/mL (≈ 21.2 µM); in experiment [2], 50 µg/mL (≈ 84.9 µM); in experiment [3] it was 25 µg/mL (≈ 42.5 µM).

In the case of `CCC(O)CNC(=O)c1ccccc1SSc1ccccc1C(=O)NCC(O)CC` (stereo not drawn), the MIC in experiment [1], in experiment [2] and in experiment [3] was 12.5 µg/mL (≈ 27.9 µM) in each case.

With `CCC(CO)NC(=O)c1ccccc1SSc1ccccc1C(=O)NC(CC)CO` (stereo not drawn), the MIC is 12.5 µg/mL (≈ 27.9 µM) in experiment [1], 25 µg/mL (≈ 55.7 µM) in experiment [2] and 25 µg/mL (≈ 55.7 µM) in experiment [3].

In the case of `O=C(c1ccccc1SSc1ccccc1C(=O)N1CCOCC1)N1CCOCC1`, the MIC is 12.5 µg/mL (≈ 28.1 µM) in experiment [1], above 100 µg/mL in experiment [2] and above 100 µg/mL in experiment [3].

In the case of `CN[C@@H]1[C@H](O[C@H]2[C@H](O[C@H]3[C@H](O)[C@@H](O)[C@H](N=C(N)N)[C@@H](O)[C@@H]3N=C(N)N)O[C@@H](C)[C@]2(O)C=O)O[C@@H](CO)[C@H](O[C@@H]2O[C@H](CO)[C@@H](O)[C@H](O)[C@@H]2O)[C@H]1O`, the minimum inhibitory concentration (MIC) in experiment [1] was found to be 0.78 µg/mL (≈ 1.05 µM); in experiment [2], 12.5 µg/mL (≈ 16.8 µM); in experiment [3], 3.13 µg/mL (≈ 4.21 µM).
